Test results published in ChEMBL document CHEMBL5036314, “Structure-Guided Design of the First Noncovalent Small-Molecule Inhibitor of CRM1” (J Med Chem, 2021).
One block for each compound: values may come before it. Active and inactive are the calls of the source. The calls are words filed in the database; no cut-off is given here.

Assays:
[1] = system: Saccharomyces cerevisiae; assay: Inhibition of NES binding to yeast CRM1-T539 mutant in absence of RanGTP at 20 uM by pull down assay
[2] = system: HeLa; assay: Anti-cancer activity against human HeLa cells assessed as cell viability at 20 uM incubated for 2 hrs by EdU incorporation based assay; type: functional
[3] = biological target: Exportin-1 (Saccharomyces cerevisiae) (UniProt P30822); assay: Inhibition of GST-NES MVM binding to yeast CRM1 at 20 uM by pull down assay
[4] = system: HeLa; assay: Inhibition of cellular nuclear export of endogenous cargo RanBP1 in human HeLa cells transfected with pmCherry-C1 plasmid at 1 to 10 uM incubated for 12 hrs by confocal microscope analysis; type: functional, cell-based; settings: dose 1-10 µM
[5] = system: HeLa; assay: Binding affinity to human CRM1 C528S mutant transfected HeLa cells assessed as inhibition of nuclear export of cargoes at 10 uM incubated for 12 hrs by confocal microscope analysis; type: cell-based
[6] = system: HeLa; assay: Induction of apoptosis in human HeLa cells assessed as cell death at 1 to 10 uM treated for 12 hrs by Annexin V FITC/propidium iodide staining based flow cytometric analysis; type: functional; settings: dose 1-10 µM
[7] = system: HeLa; assay: Inhibition of cellular nuclear export of transfected cargo in human HeLa cells transfected with pmCherry-C1 plasmid at 1 to 10 uM incubated for 12 hrs by confocal microscope analysis; type: functional, cell-based; settings: dose 1-10 µM
[8] = system: A2780; assay: Induction of apoptosis in human A2780 cells assessed as necrotic cells at 5 uM replaced with compound containing fresh culture medium every 12 hrs measured for 72 hrs by Annexin V FITC/propidium iodide staining based flow cytometric analysis (reference value: 1%); type: functional
[9] = system: A2780; assay: Induction of apoptosis in human A2780 cells assessed as late apoptotic cells at 1 uM replaced with compound containing fresh culture medium every 12 hrs measured for 72 hrs by Annexin V FITC/propidium iodide staining based flow cytometric analysis (reference value: 1.35%); type: functional
[10] = system: A2780; assay: Anti-cancer activity against human A2780 cells assessed as inhibition of cell viability measured for 72 hrs replaced with compound containing fresh culture medium every 12 hrs by Sulforhodamine B assay; type: functional, cell-based
[11] = system: HeLa; assay: Anti-cancer activity against human HeLa cells assessed as cell survival at 10 uM for 72 hrs replaced with compound containing fresh culture medium every 12 hrs by Sulforhodamine B assay; type: functional, cell-based
[12] = system: A2780; assay: Induction of apoptosis in human A2780 cells assessed as necrotic cells at 1 uM replaced with compound containing fresh culture medium every 12 hrs measured for 72 hrs by Annexin V FITC/propidium iodide staining based flow cytometric analysis (reference value: 1%); type: functional
[13] = biological target: T1, Exportin-1 (Homo sapiens, UniProt O14980); assay: Binding affinity to wild type human CRM1 transfected HeLa cells assessed as inhibition of nuclear export of cargoes at 10 uM incubated for 12 hrs by confocal microscope analysis; type: cell-based
T1 sequence (O14980 whole entry): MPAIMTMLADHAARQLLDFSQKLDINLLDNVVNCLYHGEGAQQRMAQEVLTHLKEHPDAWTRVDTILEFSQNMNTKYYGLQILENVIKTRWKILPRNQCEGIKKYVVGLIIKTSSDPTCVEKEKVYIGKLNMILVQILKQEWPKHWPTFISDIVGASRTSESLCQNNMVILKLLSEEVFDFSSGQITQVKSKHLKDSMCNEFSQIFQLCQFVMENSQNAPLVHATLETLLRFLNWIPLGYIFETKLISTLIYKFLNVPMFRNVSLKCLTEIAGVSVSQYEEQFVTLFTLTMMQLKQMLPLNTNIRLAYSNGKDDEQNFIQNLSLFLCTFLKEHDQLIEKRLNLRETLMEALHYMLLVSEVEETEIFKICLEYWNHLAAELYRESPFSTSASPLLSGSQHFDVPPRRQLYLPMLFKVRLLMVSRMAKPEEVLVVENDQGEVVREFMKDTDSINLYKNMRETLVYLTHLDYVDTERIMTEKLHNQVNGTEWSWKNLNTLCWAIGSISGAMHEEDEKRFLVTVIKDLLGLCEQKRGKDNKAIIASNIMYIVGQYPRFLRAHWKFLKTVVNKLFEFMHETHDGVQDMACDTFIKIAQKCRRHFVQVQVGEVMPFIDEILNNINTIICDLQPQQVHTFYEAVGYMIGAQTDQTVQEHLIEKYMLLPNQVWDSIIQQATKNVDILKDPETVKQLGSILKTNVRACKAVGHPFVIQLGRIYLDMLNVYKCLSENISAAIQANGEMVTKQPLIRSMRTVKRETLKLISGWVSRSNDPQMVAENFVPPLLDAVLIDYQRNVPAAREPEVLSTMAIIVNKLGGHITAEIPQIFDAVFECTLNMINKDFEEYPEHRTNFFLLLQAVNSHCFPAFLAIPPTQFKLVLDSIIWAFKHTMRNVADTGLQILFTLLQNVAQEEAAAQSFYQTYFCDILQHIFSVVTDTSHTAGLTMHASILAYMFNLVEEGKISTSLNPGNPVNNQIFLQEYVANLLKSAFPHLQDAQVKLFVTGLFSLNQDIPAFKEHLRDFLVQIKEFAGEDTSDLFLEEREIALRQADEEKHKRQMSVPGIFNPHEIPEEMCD

[14] = system: HeLa; assay: Anti-cancer activity against human HeLa cells transfected with hCRM1-C528T/K568A dual mutant assessed as measuring cell survival at 10 uM for 72 hrs replaced with compound containing fresh culture medium every 12 hrs by Sulforhodamine B assay; type: functional, cell-based
[15] = system: A2780; assay: Anti-cancer activity against human A2780 cells assessed as fold increase Annexin V positive cells at 10 uM incubated for 2 hrs by EdU incorporation based assay; type: functional
[16] = system: A2780; assay: Induction of apoptosis in human A2780 cells assessed as necrotic cells at 10 uM replaced with compound containing fresh culture medium every 12 hrs measured for 72 hrs by Annexin V FITC/propidium iodide staining based flow cytometric analysis (reference value: 1%); type: functional
[17] = system: A2780; assay: Induction of apoptosis in human A2780 cells assessed as viable cells at 10 uM replaced with compound containing fresh culture medium every 12 hrs measured for 72 hrs by Annexin V FITC/propidium iodide staining based flow cytometric analysis (reference value: 93.97%); type: functional; settings: read-out: Activity
[18] = system: A549; assay: Anti-cancer activity against human A549 cells assessed as inhibition of DNA synthesis incubated for 2 hrs by EdU incorporation based assay; type: functional, cell-based; settings: dose 1-10 µM
[19] = system: HCT-116; assay: Anti-cancer activity against human HCT-116 cells assessed as cell survival at 10 uM for 72 hrs replaced with compound containing fresh culture medium every 12 hrs by Sulforhodamine B assay; type: functional, cell-based
[20] = system: HeLa; assay: Anti-cancer activity against human HeLa cells transfected with hCRM1-C528T/F572Y dual mutant assessed as cell survival at 10 uM for 72 hrs replaced with compound containing fresh culture medium every 12 hrs by Sulforhodamine B assay; type: functional, cell-based
[21] = system: A2780; assay: Induction of apoptosis in human A2780 cells assessed as viable cells at 5 uM replaced with compound containing fresh culture medium every 12 hrs measured for 72 hrs by Annexin V FITC/propidium iodide staining based flow cytometric analysis (reference value: 93.97%); type: functional; settings: read-out: Activity
[22] = system: A2780; assay: Induction of apoptosis in human A2780 cells assessed as viable cells at 1 uM replaced with compound containing fresh culture medium every 12 hrs measured for 72 hrs by Annexin V FITC/propidium iodide staining based flow cytometric analysis (reference value: 93.97%); type: functional; settings: read-out: Activity
[23] = system: A2780; assay: Induction of apoptosis in human A2780 cells assessed as late apoptotic cells at 10 uM replaced with compound containing fresh culture medium every 12 hrs measured for 72 hrs by Annexin V FITC/propidium iodide staining based flow cytometric analysis (reference value: 1.35%); type: functional
[24] = system: HeLa; assay: Inhibition of cellular nuclear export in human HeLa cells transfected with hCRM1- C528T/F572Y dual mutant at 10 uM incubated for 72 hrs replaced with compound containing fresh culture medium every 12 hrs by Sulforhodamine B assay; type: functional, cell-based
[25] = system: HeLa; assay: Inhibition of cellular nuclear export in human HeLa cells transfected with hCRM1-C528T/K568A dual mutant at 10 uM incubated for 72 hrs replaced with compound containing fresh culture medium every 12 hrs by Sulforhodamine B assay; type: functional, cell-based
[26] = system: A2780; assay: Induction of apoptosis in human A2780 cells assessed as early apoptotic cells at 5 uM replaced with compound containing fresh culture medium every 12 hrs measured for 72 hrs by Annexin V FITC/propidium iodide staining based flow cytometric analysis (reference value: 3.67%); type: functional
[27] = system: HeLa; assay: Anti-cancer activity against human HeLa cells assessed as inhibition of cell viability measured for 72 hrs replaced with compound containing fresh culture medium every 12 hrs by Sulforhodamine B assay; type: functional, cell-based
[28] = system: A2780; assay: Induction of apoptosis in human A2780 cells assessed as late apoptotic cells at 5 uM replaced with compound containing fresh culture medium every 12 hrs measured for 72 hrs by Annexin V FITC/propidium iodide staining based flow cytometric analysis (reference value: 1.35%); type: functional
[29] = system: SW48; assay: Anti-cancer activity against human SW48 cells assessed as cell survival at 10 uM for 72 hrs replaced with compound containing fresh culture medium every 12 hrs by Sulforhodamine B assay; type: functional, cell-based
[30] = system: HepG2; assay: Anti-cancer activity against human HepG2 cells assessed as cell survival at 10 uM for 72 hrs replaced with compound containing fresh culture medium every 12 hrs by Sulforhodamine B assay; type: functional, cell-based
[31] = system: HeLa; assay: (§1) Inhibition of cellular nuclear export in human HeLa cells transfected with pmCherry-C1 Cargo plasmid assessed as cytoplasmic cargo level incubated for 12 hrs by confocal microscopic analysis; type: functional, cell-based; settings: dose 1-10 µM
[32] = as §1; type: functional, cell-based
[33] = system: PANC-1; assay: Anti-cancer activity against human PANC-1 cells assessed as cell survival at 10 uM for 72 hrs replaced with compound containing fresh culture medium every 12 hrs by Sulforhodamine B assay; type: functional, cell-based
[34] = system: A2780; assay: Induction of apoptosis in human A2780 cells assessed as early apoptotic cells at 10 uM replaced with compound containing fresh culture medium every 12 hrs measured for 72 hrs by Annexin V FITC/propidium iodide staining based flow cytometric analysis (reference value: 3.67%); type: functional
[35] = system: A549; assay: Anti-cancer activity against human A549 cells assessed as inhibition of cell viability measured for 72 hrs replaced with compound containing fresh culture medium every 12 hrs by Sulforhodamine B assay; type: functional, cell-based
[36] = system: A2780; assay: Anti-cancer activity against human A2780 cells assessed as fold reduction in DNA synthesis rate at 10 uM incubated for 2 hrs by EdU incorporation based assay; type: functional
[37] = system: MGC-803; assay: Anti-cancer activity against human MGC-803 cells assessed as cell survival at 10 uM for 72 hrs replaced with compound containing fresh culture medium every 12 hrs by Sulforhodamine B assay; type: functional, cell-based
[38] = system: HGC-27; assay: Anti-cancer activity against human HGC-27 cells assessed as cell survival at 10 uM for 72 hrs replaced with compound containing fresh culture medium every 12 hrs by Sulforhodamine B assay; type: functional, cell-based
[39] = biological target: T1, Exportin-1; assay: Binding affinity to Cy3 dye-labelled human CRM1 assessed as dissociation constant in absence of RanGTP at 10 uM incubated for 1 hr by micro-scale thermophoresis analysis
[40] = system: A549; assay: Induction of apoptosis in human A549 cells assessed as cell death at 1 to 10 uM treated for 12 hrs by Annexin V FITC/propidium iodide staining based flow cytometric analysis; type: functional; settings: dose 1-10 µM
[41] = system: HepG2; assay: Anti-cancer activity against human HepG2 cells assessed as inhibition of cell viability measured for 72 hrs replaced with compound containing fresh culture medium every 12 hrs by Sulforhodamine B assay; type: functional, cell-based
[42] = system: Huh-7; assay: Anti-cancer activity against human HuH-7 cells assessed as cell survival at 10 uM for 72 hrs replaced with compound containing fresh culture medium every 12 hrs by Sulforhodamine B assay; type: functional, cell-based
[43] = biological target: T1, Exportin-1; assay: Inhibition of MBP-NES PKI binding to human CRM1 in presence RanGTP at 20 uM by pull down assay
[44] = system: A549; assay: Anti-cancer activity against human A549 cells assessed as cell survival at 10 uM for 72 hrs replaced with compound containing fresh culture medium every 12 hrs by Sulforhodamine B assay; type: functional, cell-based
[45] = system: HeLa; assay: Cytotoxicity against human HeLa cells transfected with hCRM1-C528S-mutant assessed as cell viability measured for 72 hrs replaced with compound containing fresh culture medium every 12 hrs by Sulforhodamine B assay; type: functional, cell-based
[46] = system: HeLa; assay: Anti-cancer activity against human HeLa cells assessed as inhibition of DNA synthesis at 1 to 10 uM incubated for 2 hrs by EdU incorporation based assay; type: functional, cell-based; settings: dose 1-10 µM
[47] = system: A2780; assay: Anti-cancer activity against human A2780 cells assessed as cell survival at 10 uM for 72 hrs replaced with compound containing fresh culture medium every 12 hrs by Sulforhodamine B assay; type: functional, cell-based
[48] = system: A2780; assay: Induction of apoptosis in human A2780 cells assessed as early apoptotic cells at 1 uM replaced with compound containing fresh culture medium every 12 hrs measured for 72 hrs by Annexin V FITC/propidium iodide staining based flow cytometric analysis (reference value: 3.67%); type: functional
[49] = system: HeLa; assay: Binding affinity to human CRM1 C528S mutant transfected HeLa cells assessed as inhibition of nuclear export of cargoes at 2 uM incubated for 12 hrs by confocal microscope analysis; type: cell-based
[50] = biological target: T1, Exportin-1; assay: Binding affinity to wild type human CRM1 transfected HeLa cells assessed as inhibition of nuclear export of cargoes at 2 uM incubated for 12 hrs by confocal microscope analysis; type: cell-based

Structure (SMILES): [O-][S+](/C=C/CBr)c1cc(C(F)(F)F)cc(C(F)(F)F)c1 (stereo unspecified)
inhibition [1]: Active
Activity [2]: inactive
inhibition [3]: Active

Structure (SMILES): CC(C)CCNC/C=C/[S+]([O-])c1cc(C(F)(F)F)cc(C(F)(F)F)c1 (stereo unspecified)
inhibition [4]: Active
inhibition [5]: Active
Activity [6]: Dose-Dependent Effect
inhibition [1]: Active
inhibition [7]: Active
Activity [8]: 1.88%
Activity [2]: Active
Activity [9]: 1.33%
IC50 [10]: 5 µM
Activity [11]: Active
Activity [12]: 1.1%
inhibition [13]: Active
IC50 [14]: 2 µM
fold change (FC) [15]: 2
Activity [16]: 4.19%
viability at 10 µM [17]: 64.4%
Activity [18]: Dose-Dependent Effect
Activity [19]: Active
IC50 [20]: 2.6 µM
viability at 5 µM [21]: 79.2%
viability at 1 µM [22]: 92.8%
Activity [23]: 7.14%
inhibition [24]: inactive
inhibition [25]: inactive
Activity [26]: 15.55%
IC50 [27]: 3.8 µM
Activity [28]: 3.29%
Activity [29]: Active
Activity [30]: Active
inhibition [31]: Dose-Dependent Effect
EC50 [32]: 3.2 µM
inhibition [3]: Active
Activity [33]: Active
Activity [34]: 24.26%
IC50 [35]: 6.8 µM
fold change (FC) [36]: 5
Activity [37]: Active
Activity [38]: Active
Kd [39]: 0.024 µM
Activity [40]: Dose-Dependent Effect
IC50 [41]: 2.9 µM
Activity [42]: Active
inhibition [43]: Active
Activity [44]: Active
IC50 [45]: 5.9 µM
Activity [46]: Dose-Dependent Effect
Activity [47]: Active
Activity [48]: 4.71%

Structure (SMILES): [O-][S+](Cc1cc(Br)no1)c1cc(C(F)(F)F)cc(C(F)(F)F)c1 (stereo unspecified)
Activity [2]: inactive
inhibition [3]: inactive

Structure (SMILES): O=C(/C=C\n1cnc(-c2cc(C(F)(F)F)cc(C(F)(F)F)c2)n1)NNc1cnccn1
inhibition [1]: inactive
Activity [11]: Active
inhibition [49]: inactive
Activity [19]: Active
inhibition [50]: inactive
Activity [29]: Active
Activity [30]: Active
Activity [33]: Active
Activity [37]: Active
Activity [38]: Active
Activity [42]: Active
Activity [44]: Active
Activity [45]: inactive
Activity [47]: Active

Second part, led by results:

inhibition [3]: inactive
Structure (SMILES): FC(F)(F)c1cc(SCc2ccnc(Cl)c2)cc(C(F)(F)F)c1
Activity [2]: inactive

inhibition [3]: inactive
Structure (SMILES): [O-][S+](Cc1ccnc(Cl)c1)c1cc(C(F)(F)F)cc(C(F)(F)F)c1 (stereo unspecified)
Activity [2]: inactive
